Data as given in ChEMBL document CHEMBL5505983, “Design, synthesis, and molecular modeling studies of novel 2-quinolone-1,2,3-triazole-α-aminophosphonates hybrids as dual antiviral and antibacterial agents” (Eur J Med Chem, 2024).
≈ marks a conversion by molar mass, not a printed value.

Assays:
Staphylococcus aureus [1] = experiment: Bactericidal activity against Staphylococcus aureus CIP 54127; type: functional
Escherichia coli [2] = experiment: Bactericidal activity against Escherichia coli CIP 53154; type: functional
Human rhinovirus sp. [3] = experiment: Antiviral activity against Human rhinovirus A2 infected in human HeLa-RH cells assessed as inhibition of cytopathic effect by microscopy based analysis; type: functional, organism-based
Pseudomonas aeruginosa [4] = experiment: Bactericidal activity against Pseudomonas aeruginosa CIP A22; type: functional
Human rhinovirus sp. [5] = experiment: Antiviral activity against Human rhinovirus B14 infected in human HeLa-RH cells assessed as inhibition of cytopathic effect by microscopy based analysis; type: functional, organism-based
Zika virus = experiment: Antiviral activity against Zika virus infected in african green monkey Vero E6 cells assessed as inhibition of cytopathic effect by microscopy based analysis; type: functional, organism-based; conditions: Vero C1008
Enterococcus faecalis [6] = experiment: Antibacterial activity against Enterococcus faecalis assessed as reduction in bacterial growth by micro-broth dilution method; type: functional
Enterovirus A71 = experiment: Antiviral activity against human EV71 infected in human RD cells assessed as inhibition of cytopathic effect by microscopy based analysis; type: functional, organism-based; conditions: Enterovirus A
[7] = Cytotoxicity against human RD cells; type: toxicity, cell-based
[8] = Selectivity index, ratio of CC50 for human Huh-7 cells to IC50 for Yellow fever virus infected in human Huh-7 cells; type: toxicity, cell-based; conditions: read-out: Ratio CC50/IC50
Enterococcus faecalis [9] = experiment: Ratio of MBC to MIC for Enterococcus faecalis; type: functional
Yellow fever virus = experiment: Antiviral activity against Yellow fever virus infected in human Huh-7 cells assessed as inhibition of cytopathic effect by microscopy based analysis; type: functional, organism-based
Enterococcus faecalis [10] = experiment: Bactericidal activity against Enterococcus faecalis; type: functional
[11] = Cytotoxicity against African green monkey Vero E6 cells; type: toxicity, cell-based, Vero C1008; conditions: chlorocebus sabaeus
Staphylococcus aureus [12] = experiment: Ratio of MBC to MIC for Staphylococcus aureus CIP 54127; type: functional
[13] = Cytotoxicity against human Huh-7 cells; type: toxicity, cell-based
Pseudomonas aeruginosa [14] = experiment: Antibacterial activity against Pseudomonas aeruginosa CIP A22 assessed as reduction in bacterial growth by micro-broth dilution method; type: functional
Escherichia coli [15] = experiment: Ratio of MBC to MIC for Escherichia coli CIP 53154; type: functional
Staphylococcus aureus [16] = experiment: Antibacterial activity against Staphylococcus aureus CIP 54127 assessed as reduction in bacterial growth by micro-broth dilution method; type: functional
[17] = Cytotoxicity against African green monkey Vero A cells; type: toxicity, cell-based; conditions: chlorocebus sabaeus
[18] = Cytotoxicity against human HeLa-RH cells; type: toxicity, cell-based
Pseudomonas aeruginosa [19] = experiment: Ratio of MBC to MIC for Pseudomonas aeruginosa CIP A22; type: functional
Chikungunya virus = experiment: Antiviral activity against CHIKV infected in African green monkey Vero A cells assessed as inhibition of cytopathic effect by microscopy based analysis; type: functional, organism-based
Escherichia coli [20] = experiment: Antibacterial activity against Escherichia coli CIP 53154 assessed as reduction in bacterial growth by micro-broth dilution method; type: functional
[21] = Selectivity index, ratio of CC50 for African green monkey Vero A cells to IC50 for CHIKV infected in African green monkey Vero A cells; type: toxicity; conditions: read-out: Ratio CC50/IC50
[22] = Selectivity index, ratio of CC50 for human HeLa-RH cells to IC50 for Human rhinovirus B14 infected in human HeLa-RH cells; type: toxicity, cell-based; conditions: read-out: Ratio CC50/IC50
[23] = Selectivity index, ratio of CC50 for human RD cells to IC50 for human EV71 infected in human RD cells; type: toxicity, cell-based; conditions: read-out: Ratio CC50/IC50
[24] = Selectivity index, ratio of CC50 for African green monkey Vero E6 cells to IC50 for Zika virus infected in african green monkey Vero E6 cells; type: toxicity; conditions: read-out: Ratio CC50/IC50

SMILES	MBC (Staphylococcus aureus [1]) [µM]	MBC (Escherichia coli [2]) [µM]	IC50 (Human rhinovirus sp. [3]) [µM]	MBC (Pseudomonas aeruginosa [4]) [µM]	IC50 (Human rhinovirus sp. [5]) [µM]	IC50 (Zika virus) [µM]	MIC (Enterococcus faecalis [6]) [µM]	IC50 (Enterovirus A71) [µM]	CC50 [7] [µM]	Ratio (Enterococcus faecalis [9])	IC50 (Yellow fever virus) [µM]	MBC (Enterococcus faecalis [10]) [µM]	CC50 [11] [µM]	Ratio (Staphylococcus aureus [12])	CC50 [13] [µM]	MIC (Pseudomonas aeruginosa [14]) [µM]	Ratio (Escherichia coli [15])	MIC (Staphylococcus aureus [16]) [µM]	CC50 [17] [µM]	CC50 [18] [µM]	also measured
CCOP(=O)(OCC)C(Nc1ccccc1Cl)c1cc(Cn2cc(Cn3c(=O)cc(C)c4cc(F)ccc43)nn2)ccc1O (centres undefined)	260 (≈ 166 µg/mL)	4030 (≈ 2580 µg/mL)	> 0.41	4030 (≈ 2580 µg/mL)	> 100	> 100	30 (≈ 19.2 µg/mL)	> 100	> 100	1	10.3	30 (≈ 19.2 µg/mL)	28.1	2	31	4030 (≈ 2580 µg/mL)	2	130 (≈ 83.2 µg/mL)	7	12.5	selectivity ratio [8]: 3.01; Ratio (Pseudomonas aeruginosa [19]): 1; IC50 (Chikungunya virus): > 100 µM; MIC (Escherichia coli [20]): 2020 µM (≈ 1290 µg/mL)
CCOP(=O)(OCC)C(Nc1ccccc1OC)c1cc(Cn2cc(Cn3c(=O)cc(C)c4cc(Br)ccc43)nn2)ccc1O (centres undefined)	450 (≈ 313 µg/mL)	1790 (≈ 1250 µg/mL)	> 0.41	3590 (≈ 2500 µg/mL)	> 100	> 100	110 (≈ 76.6 µg/mL)	> 100	> 33.3	1	> 100	110 (≈ 76.6 µg/mL)	> 100	1.96	51.2	3590 (≈ 2500 µg/mL)	1.99	230 (≈ 160 µg/mL)	> 100	> 33.3	selectivity ratio [21]: > 1.23; Ratio (Pseudomonas aeruginosa [19]): 2.01; IC50 (Chikungunya virus): 81.6 µM; MIC (Escherichia coli [20]): 900 µM (≈ 627 µg/mL)
CCOP(=O)(OCC)C(Nc1ccccc1Br)c1cc(Cn2cc(Cn3c(=O)cc(C)c4ccccc43)nn2)ccc1O (centres undefined)	120 (≈ 80 µg/mL)	470 (≈ 313 µg/mL)	> 1.23	3750 (≈ 2500 µg/mL)	> 100	> 100	60 (≈ 40 µg/mL)	> 100	70.2	1	9.94	60 (≈ 40 µg/mL)	> 100	1	30.1	3750 (≈ 2500 µg/mL)	1	120 (≈ 80 µg/mL)	23.4	45.7	selectivity ratio [8]: 3.03; selectivity ratio [21]: 2.49; Ratio (Pseudomonas aeruginosa [19]): 1.99; IC50 (Chikungunya virus): 9.4 µM; MIC (Escherichia coli [20]): 470 µM (≈ 313 µg/mL)
CCOP(=O)(OCC)C(Nc1ccccc1)c1cc(Cn2cc(Cn3c(=O)cc(C)c4cc(Br)ccc43)nn2)ccc1O (centres undefined)	240 (≈ 160 µg/mL)	1880 (≈ 1250 µg/mL)	> 1.23	3750 (≈ 2500 µg/mL)	41.1	> 100	60 (≈ 40 µg/mL)	> 100	> 100	2	> 100	120 (≈ 80 µg/mL)	> 100	1	52	3750 (≈ 2500 µg/mL)	1.98	240 (≈ 160 µg/mL)	> 100	> 100	selectivity ratio [21]: > 2.5; Ratio (Pseudomonas aeruginosa [19]): 1.99; IC50 (Chikungunya virus): 40 µM; selectivity ratio [22]: > 2.43; MIC (Escherichia coli [20]): 950 µM (≈ 633 µg/mL)
Cc1cc(=O)n(Cc2cn(Cc3ccc(O)c(C=O)c3)nn2)c2ccc(Br)cc12	11000 (≈ 5000 µg/mL)	11000 (≈ 5000 µg/mL)	> 1.23	2760 (≈ 1250 µg/mL)	> 100	> 100	340 (≈ 154 µg/mL)	33.3	44.1	1	> 100	340 (≈ 154 µg/mL)	52.7	1	29.6	2760 (≈ 1250 µg/mL)	2	11000 (≈ 5000 µg/mL)	> 100	8.61	selectivity ratio [21]: > 1.02; Ratio (Pseudomonas aeruginosa [19]): 1; IC50 (Chikungunya virus): 98.5 µM; MIC (Escherichia coli [20]): 5520 µM (≈ 2500 µg/mL); selectivity ratio [23]: 1.33
Cc1cc(=O)n(Cc2cn(Cc3ccc(O)c(C=O)c3)nn2)c2ccc(F)cc12	3190 (≈ 1250 µg/mL)	6370 (≈ 2500 µg/mL)	> 1.23	3190 (≈ 1250 µg/mL)	> 100	> 100	200 (≈ 78.5 µg/mL)	29.9	43	2	> 100	400 (≈ 157 µg/mL)	55	1	27.8	3190 (≈ 1250 µg/mL)	1	3190 (≈ 1250 µg/mL)	> 100	14.5	Ratio (Pseudomonas aeruginosa [19]): 2.01; IC50 (Chikungunya virus): > 100 µM; MIC (Escherichia coli [20]): 6370 µM (≈ 2500 µg/mL); selectivity ratio [23]: 1.44
CCOP(=O)(OCC)C(Nc1ccc(I)cc1)c1cc(Cn2cc(Cn3c(=O)cc(C)c4cc(F)ccc43)nn2)ccc1O (centres undefined)	220 (≈ 161 µg/mL)	1710 (≈ 1250 µg/mL)	> 33.3	1710 (≈ 1250 µg/mL)	10.9	> 100	50 (≈ 36.6 µg/mL)	> 100	> 100	1	> 33.3	50 (≈ 36.6 µg/mL)	> 100	2	12.1	1710 (≈ 1250 µg/mL)	1.99	110 (≈ 80.5 µg/mL)	> 100	> 33.3	selectivity ratio [21]: > 3.03; Ratio (Pseudomonas aeruginosa [19]): 1; IC50 (Chikungunya virus): 33 µM; selectivity ratio [22]: > 3.06; MIC (Escherichia coli [20]): 860 µM (≈ 629 µg/mL)
CCOP(=O)(OCC)C(Nc1ccc(F)cc1)c1cc(Cn2cc(Cn3c(=O)cc(C)c4ccccc43)nn2)ccc1O (centres undefined)	510 (≈ 309 µg/mL)	1040 (≈ 630 µg/mL)	> 3.7	2060 (≈ 1250 µg/mL)	> 100	> 100	70 (≈ 42.4 µg/mL)	> 100	75.8	1	> 100	70 (≈ 42.4 µg/mL)	> 100	1.96	31.4	2060 (≈ 1250 µg/mL)	2.04	260 (≈ 157 µg/mL)	75.2	83.8	selectivity ratio [21]: 2.83; Ratio (Pseudomonas aeruginosa [19]): 1.98; IC50 (Chikungunya virus): 26.6 µM; MIC (Escherichia coli [20]): 510 µM (≈ 309 µg/mL)
CCOP(=O)(OCC)C(Nc1ccccc1Br)c1cc(Cn2cc(Cn3c(=O)cc(C)c4cc(Br)ccc43)nn2)ccc1O (centres undefined)	420 (≈ 313 µg/mL)	850 (≈ 634 µg/mL)	> 0.41	420 (≈ 313 µg/mL)	> 100	> 100	50 (≈ 37.3 µg/mL)	> 100	> 100	1	10.4	50 (≈ 37.3 µg/mL)	> 100	2	27.9	420 (≈ 313 µg/mL)	2.02	210 (≈ 157 µg/mL)	10.1	18.4	selectivity ratio [8]: 2.68; selectivity ratio [21]: 0.18; Ratio (Pseudomonas aeruginosa [19]): 1; IC50 (Chikungunya virus): 57.3 µM; MIC (Escherichia coli [20]): 420 µM (≈ 313 µg/mL)
CCOP(=O)(OCC)C(Nc1ccc(F)cc1)c1cc(Cn2cc(Cn3c(=O)cc(C)c4cc(Br)ccc43)nn2)ccc1O (centres undefined)	450 (≈ 308 µg/mL)	920 (≈ 630 µg/mL)	> 0.41	1830 (≈ 1250 µg/mL)	> 33.3	> 100	60 (≈ 41.1 µg/mL)	> 100	> 100	1	> 100	60 (≈ 41.1 µg/mL)	> 33.3	1	22.2	1830 (≈ 1250 µg/mL)	1	450 (≈ 308 µg/mL)	25.8	20.9	selectivity ratio [21]: 3.79; Ratio (Pseudomonas aeruginosa [19]): 1; IC50 (Chikungunya virus): 6.8 µM; MIC (Escherichia coli [20]): 920 µM (≈ 630 µg/mL)
CCOP(=O)(OCC)C(Nc1ccc(C)cc1)c1cc(Cn2cc(Cn3c(=O)cc(C)c4cc(Br)ccc43)nn2)ccc1O (centres undefined)	460 (≈ 313 µg/mL)	930 (≈ 633 µg/mL)	> 0.41	1840 (≈ 1250 µg/mL)	10.7	> 100	60 (≈ 40.8 µg/mL)	> 100	> 100	1	> 100	60 (≈ 40.8 µg/mL)	> 33.3	1	20	1840 (≈ 1250 µg/mL)	2.02	460 (≈ 313 µg/mL)	> 100	29.1	selectivity ratio [21]: > 1.78; Ratio (Pseudomonas aeruginosa [19]): 4; IC50 (Chikungunya virus): 56.1 µM; selectivity ratio [22]: 2.73; MIC (Escherichia coli [20]): 460 µM (≈ 313 µg/mL)
C[C@@]1(O)[C@H](O)[C@@H](CO)O[C@H]1n1ccc2c(N)ncnc21 [BETA-2'-C-METHYL-7-DEAZA-ADENOSINE]						20					16.3		> 100		50						selectivity ratio [8]: 3.07; selectivity ratio [24]: > 5
CCOC(=O)/C=C/[C@H](C[C@@H]1CCNC1=O)NC(=O)[C@@H](CC(=O)[C@@H](NC(=O)c1cc(C)on1)C(C)C)Cc1ccc(F)cc1 [RUPINTRIVIR]								1.87	> 100												selectivity ratio [23]: > 53.5
